Laboratory results published in publication PMC7985170, “Marine Peptide-N6NH2 and Its Derivative-GUON6NH2 Have Potent Antimicrobial Activity Against Intracellular Edwardsiella tarda in vitro and in vivo” (Frontiers in Microbiology, 2021).
Converted amounts (≈) assume the structure as drawn. Where a SMILES comes first, the peptide text is derived from it. Bridges are numbered along the chain shown (N, C = ends).

What was measured:
[1] = test system: inner membrane of E. tarda; assay: Inner membrane penetration, PI staining by flow cytometry; type: cell-based, Edwardsiella tarda; conditions: 1× MIC, 5–30 min at 37°C, 1 × 10^8 CFU/mL
Protocol: Mid-log phase E. tarda cells (1 × 10^8 CFU/mL) were incubated with or without 1× MIC peptides solutions at 37°C for 5, 15, and 30 min, respectively. After washing twice with PBS, bacterial cells were then incubated with 50 μg/mL propidium iodide (PI) for 15 min and analyzed using a FACS Calibur Flow Cytometer (BD, United States) ([Stearns-Kurosawa et al., 2011]).

murine erythrocytes = type: cell-based, mouse
Protocol: The hemolysis of peptides was evaluated by determining the amount of hemoglobin that was released from fresh mouse erythrocytes ([Flamm et al., 2019]). The blood cells were washed three times with 10 mM PBS (pH 7.4) and centrifuged for 10 min (1,500 rpm). Erythrocyte solution (8%, v/v) was mixed with peptide solutions (1:1) and incubated for 1 h at 37°C. The mixture was then centrifuged for 5 min (1,500 rpm), and the absorbance of supernatants was measured at 540 nm. Values of 0 and 100% hemolysis were determined in PBS and 0.1% triton X-100, respectively. The hemolysis of peptides was calculated using the following formula: Hemolysis (%) = [(Abs treated sample – Abs negative control)/(Abs positive control – Abs negative control)] × 100.

E. coli CVCC1515 = type: cell-based, Escherichia coli
Protocol: (§1) The antimicrobial activity of peptides was determined by the microbroth dilution method ([Zhang et al., 2014]). The bacterial strains were incubated in Mueller-Hinton (MH) medium at 28°C or 37°C overnight. Bacteria (1 × 10^5 CFU/mL) were added into 96-well plates, followed by the addition of serial dilutions of peptides (from 0.0625 to 128 μg/mL). The plates were incubated at 37°C for 18–24 h. The minimal inhibitory concentration (MIC) value was determined as the lowest peptide concentration at which no bacterial growth was observed.

E. coli CVCC25922 = type: cell-based, Escherichia coli
Protocol: as §1

Gram-negative bacteria = assay: Geometric mean of MICs and therapeutic index; type: cell-based; conditions: for GM Gram-negative bacteria: geometric mean (GM) of MICs against Gram-negative bacteria; for TI Gram-negative bacteria: therapeutic index (TI), cell selectivity
Protocol: as §1
(§2) The geometric mean (GM) of MICs of peptides against Gram-negative and Gram-positive bacteria was calculated, and the result was shown in Table 3. […] For Gram-negative bacteria, the TI value of GUON6NH2 (53.33) was very close to N6NH2 (58.18), while for positive bacteria, the TI value of GUON6NH2 (12.8) was slightly higher than that of N6NH2 (12.31), indicating their huge therapeutic potential. For Gram-positive bacteria, DN6NH2 had the highest TI value and the best therapeutic potential.

[2] = test system: Gram-negative and Gram-positive bacteria (ALL); assay: Geometric mean of MICs and therapeutic index; type: cell-based; conditions: for GM ALL: geometric mean (GM) of MICs, all strains; for TI ALL: therapeutic index (TI), cell selectivity
Protocol: as §1, §2

Gram-positive bacteria = assay: Geometric mean of MICs and therapeutic index; type: cell-based; conditions: for GM Gram-positive bacteria: geometric mean (GM) of MICs against Gram-positive bacteria; for TI Gram-positive bacteria: therapeutic index (TI), cell selectivity
Protocol: as §1, §2

S. aureus ATCC546 = type: cell-based, Staphylococcus aureus
Protocol: as §1

S. aureus ATCC25923 = type: cell-based, Staphylococcus aureus
Protocol: as §1

[3] = type: cell-based, Streptococcus enteritidis
Protocol: as §1

[4] = test system: Staphylococcus aureus ATCC43300; type: cell-based
Protocol: as §1

[5] = test system: Salmonella pullorum CVCC1802; type: cell-based
Protocol: as §1

[6] = test system: Salmonella typhimurium CVCC533; type: cell-based; conditions: murium CVCC533
Protocol: as §1

Escherichia coli CVCC195 = type: cell-based
Protocol: as §1

[7] = test system: Staphylococcus hyicus 437-2; type: cell-based
Protocol: as §1

Edwardsiella tarda = type: cell-based
Protocol: as §1

S. hyicus 15095 = type: cell-based, Staphylococcus hyicus
Protocol: as §1

S. pullorum CVCC1789 = type: cell-based, Salmonella pullorum
Protocol: as §1

LPS = LPS binding, BODIPY-TR-cadaverine (BC) probe displacement; conditions: 0.5 μM LPS, 5 μM BC, Tris buffer pH 7.4; peptides 0.049 to 50 μM
Protocol: The BODIPY’-TR-cadaverine (BC) probe was used to determine the ability of peptides to bind to LPS ([Wang et al., 2020]). 0.5 μM LPS was incubated with 5 μM BC in […] Tris buffer (pH 7.4) for 4 h at 37°C. Subsequently, the peptides were added into the mixture and the final concentrations of peptides ranged from 0.049 to 50 μM. Ampicillin was used as the negative control. Changes in fluorescence were measured by a fluorescence spectrophotometry at room temperature (excitation/emission, 580/620 nm).

S. typhimurium ATCC14028 = type: cell-based, Salmonella typhimurium
Protocol: as §1

E. tarda [8] = assay: Time-killing curve; type: cell-based, Edwardsiella tarda; conditions: 2× or 4× MIC, MHB, 1 × 10^5 CFU/mL, 28°C
Protocol: Time-killing curve of peptides was performed according to the previous method ([Flamm et al., 2019]). E. tarda was cultured to logarithmic phase, diluted in Mueller Hinton broth (MHB) (1 × 10^5 CFU/mL) containing 1×, 2×, or 4× MIC of peptides, and cultured at 28°C (200 rpm). PBS was added as a control. Bacterial samples (100 μL) were removed at different time intervals (0, 0.5, 1, 1.5, 2, 4, 6, 8, 10, 12, 22, and 24 h) and were counted on MH solid plates. The time-killing curves of peptides were plotted. Bacterial cells treated with 2× MIC norfloxacin and without treatment were used as the positive and blank controls, respectively.

E. tarda [9] = assay: SEM and TEM morphology; type: cell-based, Edwardsiella tarda; conditions: 4× MIC, 2 h
Protocol: To further characterize the bactericidal effects of the peptides, scanning electron microscopy (SEM) and transmission electron microscopy (TEM) were used to visualize morphological changes ([Yang et al., 2019]). E. tarda was cultured to logarithmic growth stage (10^8 CFU/mL) and diluted with 0.01 M PBS (pH 7.4) to OD600 nm = 1. E. tarda cells were treated with 4× MIC peptides at 37°C for 2 h and the untreated cells were used as the control. Briefly, after centrifugation, the bacterial cells were washed three times with 0.1 M PBS (pH 7.2) and fixed overnight at 4°C with 2.5% glutaraldehyde. After washing again, the cells were fixed with 1% osmium tetroxide (OsO4) for 2 h and dehydrated in a graded ethanol series (50%–70%–85%–95% × 2–100%, × 2) for 15 min, respectively. The samples were then dried by CO2, sputtered with gold-palladium, and observed on a QUANTA200 SEM (FEI, Philips, Netherlands).
E. tarda cells were treated peptides before fixation as described above. The bacteria were washed with 0.01 M PBS (pH 7.4) for five times, 7 min each time, and fixed with 1% osmium acid buffer (4°C) for 1 h. After dehydration with a graded acetone series (30%–50%–70%–85%–95%–100% × 3), the cells were immersed in mixtures of acetone and resin (3:1, 1:1 and 1:3, respectively) for 40 min and in a pure epoxy resin overnight. The samples were then embedded in embedding medium and polymerized at 45°C for 3 h and at 65°C for 24 h, respectively. The sections were prepared using an ultramicrotome, stained with 1% uranyl acetate, and visualized by a JEM1400 (JEDL, Tokyo, Japan).

SMILES	penetration rate (PI-stained cells) [1]	MHC (murine erythrocytes)	MIC (E. coli CVCC1515)	MIC (E. coli CVCC25922)	GM Gram-negative bacteria (Gram-negative bacteria)	TI Gram-negative bacteria (Gram-negative bacteria)	GM ALL [2]	TI ALL [2]	GM Gram-positive bacteria (Gram-positive bacteria)	TI Gram-positive bacteria (Gram-positive bacteria)	MIC (S. aureus ATCC546)	MIC (S. aureus ATCC25923)	MIC [3]	MIC [4]	MIC [5]	MIC [6]	MIC (Escherichia coli CVCC195)	MIC [7]	MIC (Edwardsiella tarda)	MIC (S. hyicus 15095)	further results
CC(C)[C@@H]1NC(=O)CNC(=O)[C@H](CC(N)=O)NC(=O)[C@H](CCCNC(=N)N)NC(=O)[C@H](Cc2ccc(O)cc2)NC(=O)[C@H](C(C)C)NC(=O)[C@@H](NC(=O)[C@@H](NC(=O)[C@H](CC(N)=O)NC(=O)[C@H](Cc2c[nH]c3ccccc23)NC(=O)[C@H](C)NC(=O)[C@H](Cc2ccccc2)NC(=O)CN)C(C)C)CSSC[C@@H](C(=O)N[C@@H](Cc2c[nH]cn2)C(=O)N[C@@H](CCCNC(=N)N)C(=O)N2CCC[C@H]2C(=O)N[C@@H](C)C(=O)N[C@@H](CC(N)=O)C(N)=O)NC(=O)[C@H](C(C)C)NC(=O)[C@H](CCCNC(=N)N)NC1=O [N6PNH2] (H-GFAWNVCVYRNGVRVCHRPAN-NH2; disulfide 7-16 (inferred); N-terminus assumed)	0.42–2.20%	>128 µg/mL	4 µg/mL (≈ 1.66 µM)	8 µg/mL (≈ 3.31 µM)	13.4 µg/mL	19.1	47.33 µg/mL	5.41	115.2 µg/mL	2.22	>64 µg/mL	>64 µg/mL	2 µg/mL (≈ 0.828 µM)	>64 µg/mL	8 µg/mL (≈ 3.31 µM)	32 µg/mL (≈ 13.2 µM)	8 µg/mL (≈ 3.31 µM)	>64 µg/mL	32 µg/mL (≈ 13.2 µM)	64 µg/mL (≈ 26.5 µM)	MIC (S. pullorum CVCC1789): 16 µg/mL (≈ 6.62 µM); ability to bind to LPS (BC probe displacement) (LPS): V112N6NH2 > GUON6NH2 > N6NH2 > DN6NH2 > N6PNH2; MIC (S. typhimurium ATCC14028): 16 µg/mL (≈ 6.62 µM)
CC(C)[C@H](N)C(=O)N[C@@H](Cc1ccccc1)C(=O)N[C@@H](C)C(=O)N[C@@H](Cc1c[nH]c2ccccc12)C(=O)N[C@@H](CC(N)=O)C(=O)N[C@H](C(=O)N[C@H]1CSSC[C@@H](C(=O)N[C@@H](Cc2c[nH]cn2)C(=O)N[C@@H](CCCNC(=N)N)C(=O)N[C@@H](CCCNC(=N)N)C(=O)N[C@@H](C)C(=O)N[C@@H](CC(N)=O)C(N)=O)NC(=O)[C@H](C(C)C)NC(=O)[C@H](CCCNC(=N)N)NC(=O)[C@H](C(C)C)NC(=O)[C@H](C(C)C)NC(=O)[C@H](CC(N)=O)NC(=O)[C@H](CCCNC(=N)N)NC(=O)[C@H](Cc2ccc(O)cc2)NC(=O)[C@H](C(C)C)NC1=O)C(C)C [V112N6NH2] (H-VFAWNVCVYRNVVRVCHRRAN-NH2; disulfide 7-16 (inferred); N-terminus assumed)	0.85–30.1%	>128 µg/mL	4 µg/mL (≈ 1.56 µM)	8 µg/mL (≈ 3.13 µM)	11.8 µg/mL	21.69	16.4 µg/mL	15.61	25.6 µg/mL	10	16 µg/mL (≈ 6.25 µM)	32 µg/mL (≈ 12.5 µM)	2 µg/mL (≈ 0.782 µM)	32 µg/mL (≈ 12.5 µM)	8 µg/mL (≈ 3.13 µM)	16 µg/mL (≈ 6.25 µM)	8 µg/mL (≈ 3.13 µM)	32 µg/mL (≈ 12.5 µM)	32 µg/mL (≈ 12.5 µM)	16 µg/mL (≈ 6.25 µM)	time to completely kill E. tarda (E. tarda [8]): ≤ 6 h; MIC (S. pullorum CVCC1789): 16 µg/mL (≈ 6.25 µM); ability to bind to LPS (BC probe displacement) (LPS): V112N6NH2 > GUON6NH2 > N6NH2 > DN6NH2 > N6PNH2; morphological changes by SEM (E. tarda [9]): some protrusions were observed on the cell surfaces; MIC (S. typhimurium ATCC14028): 16 µg/mL (≈ 6.25 µM)
